Results taken from patent publication US8680059B2, “Oligopeptide acetate and formulations thereof” (Biotempt B.V., priority 1998, dated 2014).
Values joined by “and” are separate entries in the source; they are usually repeats but may differ in a detail not shown here. Equal values may be shown once.

Experiments:
[1] = test system: BALB/c mice injected i.p. with LPS (E. coli 026:B6); experiment: LPS-induced septic shock (endotoxin model) in BALB/c mice; type: in vivo, mouse; parameters: key to Sickness score of individual mouse: 0: No abnormalities.; 1: Percolated fur, but no detectable behavior differences compared to normal mice.; 2: Percolated fur, huddle reflex, responds to stimuli (such as tap on cage), just as active during handling as healthy mouse.; 3: Slower response to tap on cage, passive or docile when handled, but still curious when alone in a new setting.; 4: Lack of curiosity, little or no response to stimuli, quite immobile.; 5: Labored breathing, inability or slow to self-right after being rolled onto back (moribund, sacrificed).; Dead; details: for number of mice with sickness score 1 / number of mice with sickness score 2: peptide twice (t = 2 hr and 24 hr) 5 mg/kg; for Survival %: group of 6, 48 hrs
Experimental: Mice used in sepsis or septic shock experiments: Female BALB/c mice of 8-12 weeks of age were used for all experiments. The animals were bred in our facility under specific pathogen-free conditions according to the protocols described in the Report of European Laboratory Animal Science Associations (FELASA) Working group on Animal Health (Laboratory Animals 28: 1-24, 1994).
Injection protocols: For the endotoxin model, BALB/c mice were injected i.p. with 150-300 μg LPS (E. coli 026:B6; Difco Lab., Detroit, Mich., USA). Control groups were treated with PBS i.p. only. To test the effect of peptides, they were dissolved in PBS and injected i.p. at predetermined points in time after LPS treatment.
Mice were scored for sickness severity using the following measurement scheme: • 0 No abnormalities. • 1 Percolated fur, but no detectable behavior differences compared to normal mice. • 2 Percolated fur, huddle reflex, responds to stimuli (such as tap on cage), just as active during handling as healthy mouse. • 3 Slower response to tap on cage, passive or docile when handled, but still curious when alone in a new setting. • 4 Lack of curiosity, little or no response to stimuli, quite immobile. • 5 Labored breathing, inability or slow to self-right after being rolled onto back (moribund, sacrificed). • D Dead […]
A comparative trial was set up to compare peptide MTR and SEQ ID NO:2. The comparative trial comprised 6 groups of 6 animals; two groups (1A and 1B) receiving placebo (PBS), one group (2) peptide MTR (source Pepscan, Lelystad, NL), one group (3) receiving peptide MTR (source Ansynth), one group (4) receiving peptide SEQ ID NO:2 (source Pepscan) and one group peptide SEQ ID NO:2 (source Ansynth). Peptide/placebo in these groups was administered 2 hours after LPS. LPS (source) was used at 10-11 mg/kg. Sickness scores were done at 0, 2, 22 26 42 and 48 hours after LPS injection.

[2] = test system: RAW 264.7 murine macrophage cell line; experiment: Nitrite (NO) production in LPS-stimulated RAW 264.7 macrophages; type: cell-based; details: co-stimulated with LPS 10 microg/ml, peptide even at 1 pg/ml, 24 hours
Experimental: Cell culture. The RAW 264.7 murine macrophage cell line, obtained from American Type Culture Collection (Manassas, Va., USA), were cultured at 37° C. in 5% CO2 using DMEM containing 10% fetal calf serum (FCS), 50 U/ml penicillin, 50 μg/ml streptomycin, […] Na-pyruvate, 2 mM glutamine and 50 μM 2-mercaptoethanol (Bio Whittaker, Europe). The medium was changed every 2 days.
Nitrite measurements. Nitrite production was measured in the RAW 264.7 macrophage supernatants. The cells (7.5×10^5/ml) were cultured in 48-well plates in […] of culture medium. The cells were stimulated with LPS (10 microg/ml) and/or peptide (1 pg/ml, 1 ng/ml, 1 μg/ml) for 24 hours, then the culture media were collected. Nitrite was measured by adding 100 microl of Griess reagent (Sigma) to 100 microl samples of culture medium. The OD540 was measured using a microplate reader, and the nitrite concentration was calculated by comparison with the OD540 produced using standard solutions of sodium nitrite in the culture medium.

[3] = 5 mg/kg i.p. given both early (2 hours) or late (24 hours)

In the case of “AQGV [tetrapeptide derived from human chorionic gonadotropin, alanine replacement of LQGV]”, the “clinical signs of shock at 84 hours after LPS-treatment” value [1, 3] is reported as “no remaining clinical signs of shock”, the “survival at 84 hours after LPS-treatment” value [1, 3] is reported as 100% and the “number of mice with sickness score 1” value ([1]; LPS dose 10.5, t = 24 hr) is reported as 2. The “number of mice with sickness score 2” value ([1]; LPS dose 10.5, t = 24 hr) was 3, the “number of mice with sickness score 1” value ([1]; LPS dose 10.5, t = 48 hr) was 5 and the “number of mice with sickness score 1” value ([1]; LPS dose 11, t = 24 hr) was 2. The “number of mice with sickness score 2” value ([1]; LPS dose 11, t = 24 hr) was 4, the “number of mice with sickness score 1” value ([1]; LPS dose 11, t = 48 hr) was 6 and the “% survival” value ([1]; single injection 5 mg/kg 2 hours after LPS (300 μg), time 0 hours) was 100%. The “% survival” value ([1]; single injection 5 mg/kg 2 hours after LPS, time 14 hours) was 100%, the “% survival” value ([1]; single injection 5 mg/kg 2 hours after LPS, time 24 hours) was 100% and the “% survival” value ([1]; single injection 5 mg/kg 2 hours after LPS, time 48 hours) was 100%. The “% survival” value ([1]; single injection 5 mg/kg 2 hours after LPS, time 84 hours) was 100%, the “% survival” value ([1]; single injection 5 mg/kg 24 hours after LPS (300 μg), time 0 hours) was 100% and the “% survival” value ([1]; single injection 5 mg/kg 24 hours after LPS, time 14 hours) was 100%. The “% survival” value ([1]; single injection 5 mg/kg 24 hours after LPS, time 24 hours) was 100%, the “% survival” value ([1]; single injection 5 mg/kg 24 hours after LPS, time 48 hours) was 100% and the “% survival” value ([1]; single injection 5 mg/kg 24 hours after LPS, time 84 hours) was 100%. The “Sickness score of individual mouse” value ([1]; source Ansynth (#Ansynth 12/46) 2 hours after LPS 10-11 mg/kg, 0 hrs (before peptide)) was 0, the “Sickness score of individual mouse” value ([1]; source Ansynth (#Ansynth 12/46) 2 hours after LPS 10-11 mg/kg, 2 hrs (at peptide administration)) was 2 and the “Sickness score of individual mouse” value ([1]; source Ansynth (#Ansynth 12/46) 2 hours after LPS 10-11 mg/kg, 22 hrs) was 3 (2×) and 2 (3×) and 4. The “Sickness score of individual mouse” value ([1]; source Ansynth (#Ansynth 12/46) 2 hours after LPS 10-11 mg/kg, 26 hrs) was 3 (2×) and 2 (3×) and 4, the “Sickness score of individual mouse” value ([1]; source Ansynth (#Ansynth 12/46) 2 hours after LPS 10-11 mg/kg, 42 hrs) was 2 and 3 and 1 (3×) and 5 and the “Sickness score of individual mouse” value ([1]; source Ansynth (#Ansynth 12/46) 2 hours after LPS 10-11 mg/kg, 48 hrs) was 1 (5×) and dead. For the same substance, the Survival % ([1]; source Ansynth (#Ansynth 12/46) 2 hours after LPS 10-11 mg/kg) was 83%, the “Sickness score of individual mouse” value ([1]; source Pepscan (#970/#971) 5 mg/kg 2 hours after LPS 10-11 mg/kg, 0 hrs (before peptide)) was 0 and the “Sickness score of individual mouse” value ([1]; source Pepscan (#970/#971) 5 mg/kg 2 hours after LPS 10-11 mg/kg, 2 hrs (at peptide administration)) was 2. The “Sickness score of individual mouse” value ([1]; source Pepscan (#970/#971) 5 mg/kg 2 hours after LPS 10-11 mg/kg, 22 hrs) was 2 (4×) and 3 and 4, the “Sickness score of individual mouse” value ([1]; source Pepscan (#970/#971) 5 mg/kg 2 hours after LPS 10-11 mg/kg, 26 hrs) was 2 (3×) and 3 (2×) and 5 and the “Sickness score of individual mouse” value ([1]; source Pepscan (#970/#971) 5 mg/kg 2 hours after LPS 10-11 mg/kg, 42 hrs) was 2 (5×) and dead. The “Sickness score of individual mouse” value ([1]; source Pepscan (#970/#971) 5 mg/kg 2 hours after LPS 10-11 mg/kg, 48 hrs) was 2 (3×) and 1 (2×), the Survival % ([1]; source Pepscan (#970/#971) 5 mg/kg 2 hours after LPS 10-11 mg/kg) was 83% and the NO production [2] was “inhibited the production of NO”.
